SMILES	melting point
Cc1ccc(NC(=O)N2CCN(C[C@@]3(C)Cn4cc([N+](=O)[O-])nc4O3)CC2)cc1	207 to 210 °C (dec.)
CC1(CCN2CCN(c3ccccc3)C(=O)C2)Cn2cc([N+](=O)[O-])nc2O1 (stereo not shown)	199 to 202 °C (dec.)
CC1(CN2CCCN(C(=O)OCc3ccccc3)CC2)Cn2cc([N+](=O)[O-])nc2O1.Cl (stereo not shown)	115 to 117 °C
O=C(OCc1ccc(C(F)(F)F)cc1)N1CCN(CC2Cn3cc([N+](=O)[O-])nc3O2)CC1 (stereo not shown)	120 to 122 °C
C[C@]1(COc2ccc(N3CCN(C(=O)OCc4ccc(Cl)cc4)CC3)cc2)Cn2cc([N+](=O)[O-])nc2O1	184.5 to 187.5 °C
CN(CCN(C)c1ccc(C(F)(F)F)cc1)C[C@@]1(C)Cn2cc([N+](=O)[O-])nc2O1	135.5 to 137.5 °C
CC1(Cn2c(=O)n(C3CCN(C(=O)OCc4ccccc4)CC3)c3ccccc32)Cn2cc([N+](=O)[O-])nc2O1 (stereo not shown)	181.7 to 184.6 °C
CN(Cc1ccc(Cl)cc1)C[C@@]1(C)Cn2cc([N+](=O)[O-])nc2O1	129 to 129.5 °C
CC1(Cn2nc(Cc3ccc(Cl)cc3)oc2=O)Cn2cc([N+](=O)[O-])nc2O1 (stereo not shown)	151 to 153 °C
CC1(CCN2CCN(C(=O)OCc3ccc(C(F)(F)F)cc3)CC2)Cn2cc([N+](=O)[O-])nc2O1 (stereo not shown)	139 to 140 °C
Cc1ccc(C(=O)N2CCN(CC3(C)Cn4cc([N+](=O)[O-])nc4O3)CC2)cc1 (stereo not shown)	121 to 122 °C
O=C(CN1CCN(C(=O)OCc2ccc(OC(F)(F)F)cc2)CC1)N1CCC2(CC1)Cn1cc([N+](=O)[O-])nc1O2	137 to 139 °C
CC1(CN2CCN(C(=O)Cc3ccc(Cl)cc3)CC2)Cn2cc([N+](=O)[O-])nc2O1 (stereo not shown)	184 to 187 °C
CC1(Cn2ccnc2)Cn2cc([N+](=O)[O-])nc2O1 (stereo not shown)	245.5 to 247.8 °C
CCCCCCCCOC(=O)N1CCN(CC2(C)Cn3cc([N+](=O)[O-])nc3O2)CC1 (stereo not shown)	138 to 139.4 °C
C[C@]1(CN2CCN(S(=O)(=O)Cc3ccc(Cl)cc3)CC2)Cn2cc([N+](=O)[O-])nc2O1	204 to 206 °C

SMILES	melting point
C[C@]1(COC(=O)N2CCN(c3ccc(OC(F)(F)F)cc3)CC2)Cn2cc([N+](=O)[O-])nc2O1	168 to 169 °C
C[C@]1(CN2CCN(S(=O)(=O)c3ccc(Cl)cc3)CC2)Cn2cc([N+](=O)[O-])nc2O1	216 to 218 °C
C[C@]1(CN2CCC(NCCc3ccc(C(F)(F)F)cc3)CC2)Cn2cc([N+](=O)[O-])nc2O1	80.7 to 84.2 °C
CC(C)(C)OC(=O)N1CCN(c2cccc(OC[C@@]3(C)Cn4cc([N+](=O)[O-])nc4O3)c2)CC1	179.5 to 182 °C
CC(C)(C)OC(=O)N1CCN(C(=O)c2ccc(OC[C@@]3(C)Cn4cc([N+](=O)[O-])nc4O3)cc2)CC1	222.5 to 224 °C
CC1(CCSc2nc3ccccc3o2)Cn2cc([N+](=O)[O-])nc2O1 (stereo not shown)	174 to 175 °C
CC1(CN2CCC(Cc3ccc(C(F)(F)F)cc3)CC2)Cn2cc([N+](=O)[O-])nc2O1 (stereo not shown)	125 to 126 °C
O=C(Nc1ccc(OC(F)(F)F)cc1)N1CCC2(CC1)Cn1cc([N+](=O)[O-])nc1O2	231 to 233 °C
CC1(COc2ccc(N3CCC(Oc4ccc(Cl)cc4)CC3)cc2)Cn2cc([N+](=O)[O-])nc2O1 (stereo not shown)	151 to 152.3 °C
C[C@]1(COC(=O)N2CC=C(c3ccc(C(F)(F)F)cc3)CC2)Cn2cc([N+](=O)[O-])nc2O1	169 to 171 °C
CC1(Cn2c(=O)oc3ccc(F)cc32)Cn2cc([N+](=O)[O-])nc2O1 (stereo not shown)	246.2 to 246.8 °C
CN(Cc1ccc(OC(F)(F)F)cc1)C(=O)OC[C@@]1(C)Cn2cc([N+](=O)[O-])nc2O1	123 to 124 °C
CCn1nnnc1CCC1(C)Cn2cc([N+](=O)[O-])nc2O1 (stereo not shown)	135 to 137 °C
C[C@]1(CN2CCC(NCc3ccc(C(F)(F)F)cc3)CC2)Cn2cc([N+](=O)[O-])nc2O1	148.6 to 152.9 °C
CN(C(=O)OCc1ccc(Cl)cc1)C1CCN(CC2(C)Cn3cc([N+](=O)[O-])nc3O2)CC1 (stereo not shown)	147.2 to 149.2 °C
